Measurements published in patent US20100298300A1, “TRIAZOLOPYRAZINE COMPOUNDS USEFUL FOR THE TREATMENT OF DEGENERATIVE & INFLAMMATORY DISEASES” (priority 2006, published 2010).

Key:
[1] = system: MMP1 expression by activated primary synovial fibroblasts; experiment: 'MMP assay': MMP1 expression by complex trigger activated synovial fibroblasts (MMP1 ELISA); format: cell-based; details: Homo sapiens, Fibroblast, RASFs, complex trigger, 48 hrs, MMP1 ELISA
[2] = target: T1, MAPKAPK5 (Homo sapiens, UniProt Q8IW41); experiment: MAPKAP-K5 assay (FlashPlate kinase assay)
T1 sequence (Q8IW41 1-471 isoform Q8IW41-2): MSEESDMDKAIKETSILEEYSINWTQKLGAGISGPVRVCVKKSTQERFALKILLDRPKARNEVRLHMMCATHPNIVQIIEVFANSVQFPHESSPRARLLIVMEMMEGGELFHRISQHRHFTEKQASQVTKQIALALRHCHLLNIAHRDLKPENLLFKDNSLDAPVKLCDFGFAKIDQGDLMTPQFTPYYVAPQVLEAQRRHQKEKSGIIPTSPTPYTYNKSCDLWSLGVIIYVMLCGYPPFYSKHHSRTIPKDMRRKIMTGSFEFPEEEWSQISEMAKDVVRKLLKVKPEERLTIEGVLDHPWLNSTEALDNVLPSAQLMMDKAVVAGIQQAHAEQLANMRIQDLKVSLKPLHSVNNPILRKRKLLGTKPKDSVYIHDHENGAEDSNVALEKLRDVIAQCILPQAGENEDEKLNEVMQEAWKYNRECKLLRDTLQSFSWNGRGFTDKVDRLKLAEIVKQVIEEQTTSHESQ

[3] = system: TNFα release by human PBMCs; experiment: Cytokine release by LPS stimulated human PBMCs (TNFα ELISA); format: cell-based; details: PBMC, 24 h, Table 5, LPS 1 μg/mL
Experimental: For the assay PBMCs are seeded at 2.5E6 cells/mL in 160 μL in 96-well plates (Nunc). Serial dilution of the test compounds are made first in DMSO (Sigma) and then diluted 50-fold in M199 medium (Gibco) containing 1% heat-inactivated FBS. Compounds are further 1/10 diluted in the assay plates to obtain final DMSO concentration of 0.2%. Cells are preincubated with the compounds for 1 hr at 37° C., 5% CO2. Then, cells are stimulated with LPS (Escherichia coli serotype 026:B6, Cat. No. L2654, Sigma) that is added in a volume of 20 μL to a final concentration of 1 μg/mL and cells are further cultured for 24 hr. The plates are centrifuged and the supernatant is collected and stored at −80° C. until analysis of appropriate dilutions in ELISAs.
After 4 hr incubation at RT, blocking buffer is removed and plates are washed once with PBST (1×PBS with 0.05% Tween-20 (Sigma)). Then, 40 μL of sample is transferred to the ELISA plates and plates are incubated at 4° C. […] After 2 h of incubation at RT, plates are washed as described above and 35 μL/well of a 1/2000 dilution of streptavidin-HRP conjugate (Cat. No. SNN2004, Biosource) in buffer D is added. After 45 min, plates are washed as described above and incubated for 5 min with 50 μL/well BM Chemiluminescence ELISA Substrate POD (Roche). Readout is performed on the Luminoscan Ascent Luminometer (Labsystems) with an integration time of 100 msec delivering raw data (RLU: relative luminescence units). The following controls are included in the experiments, a maximal signal control, in which the cells are activated by LPS but only the 0.2% DMSO vehicle (and thus no compound) is added. […] A minimal signal control is also included in these experiments. Here, cells are not triggered. […] Where compounds are tested at 8 concentrations (1/3 serial dilution), EC50-values can be calculated by curve fitting of the means of the PIN data achieved for a compound at each test concentration.

CN1CCN(c2ccc(Nc3ncc(-c4cn[nH]c4)n4ncnc34)cc2)CC1 [Compound 2]
EC50 ([1]; Table 3): > 1000 nM | IC50 [2]: > 1000 nM | EC50 [3]: > 1000 nM

CN1CCN(c2ccc(Nc3ncc(-c4ccc(C(N)=O)cc4)n4ncnc34)cc2)CC1 [Compound 3]
EC50 ([1]; Table 3): 101 to 500 nM | IC50 [2]: > 1000 nM | EC50 [3]: > 1000 nM

CN1CCN(c2ccc(Nc3ncc(-c4cc[nH]c(=O)c4)n4ncnc34)cc2)CC1 [Compound 4, 4-(8-(4-(4-methylpiperazin-1-yl)phenylamino)-[1,2,4]triazolo[1,5a]pyrazin-5-yl)pyridin-2(1H)-one]
EC50 ([1]; Table 3): > 1000 nM | IC50 [2]: > 1000 nM | EC50 [3]: > 1000 nM

NC(=O)c1ccc(-c2cnc(Nc3ccc(N4CCOCC4)cc3)c3ncnn23)cc1 [Compound 5]
EC50 ([1]; Table 3): 101 to 500 nM | IC50 [2]: > 1000 nM | EC50 [3]: > 1000 nM

CN1CCN(c2ccc(Nc3ncc(-c4csc(C(N)=O)c4)n4ncnc34)cc2)CC1 [Compound 6, 4-{8-[4-(4-Methyl-piperazin-1-yl)-phenylamino]-[1,2,4]triazolo[1,5-a]pyrazin-5-yl}-thiophene-2-carboxylic acid amide]
EC50 ([1]; Table 3): 101 to 500 nM | IC50 [2]: 1 to 100 nM | EC50 [3]: > 1000 nM

CN1CCN(c2ccc(Nc3ncc(-c4ccc(C(N)=O)c(F)c4)n4ncnc34)cc2)CC1 [Compound 7]
EC50 ([1]; Table 3): > 1000 nM | IC50 [2]: > 1000 nM | EC50 [3]: > 1000 nM

CN1CCN(c2ccc(Nc3ncc(-c4ccc(C(N)=O)cc4F)n4ncnc34)cc2)CC1 [Compound 8]
EC50 ([1]; Table 3): 501 to 1000 nM | IC50 [2]: > 1000 nM | EC50 [3]: > 1000 nM

CN1CCN(c2ccc(Nc3ncc(-c4ccc(C(N)=O)s4)n4ncnc34)cc2)CC1 [Compound 9, 5-{8-[4-(4-Methyl-piperazin-1-yl)-phenylamino]-[1,2,4]triazolo[1,5-a]pyrazin-5-yl}-thiophene-2-carboxylic acid amide]
EC50 ([1]; Table 3): 501 to 1000 nM | IC50 [2]: 501 to 1000 nM | EC50 [3]: 101 to 500 nM

NC(=O)c1ccc(-c2cnc(Nc3ccc(N4CCOCC4)cc3)c3ncnn23)c(F)c1 [Compound 10]
EC50 ([1]; Table 3): 501 to 1000 nM | IC50 [2]: > 1000 nM | EC50 [3]: > 1000 nM

NC(=O)c1ccc(-c2cnc(Nc3ccc(N4CCOCC4)cc3)c3ncnn23)cc1F [Compound 11]
EC50 ([1]; Table 3): 101 to 500 nM | IC50 [2]: > 1000 nM | EC50 [3]: > 1000 nM

Cc1[nH]ncc1-c1cnc(Nc2ccc(N3CCOCC3)cc2)c2ncnn12 [Compound 12, 5-(5-Methyl-1H-pyrazol-4-yl)-N-(4-morpholinophenyl)-[1,2,4]triazolo[1,5-a]pyrazin-8-amine]
EC50 ([1]; Table 3): 501 to 1000 nM | IC50 [2]: 501 to 1000 nM | EC50 [3]: > 1000 nM

NC(=O)c1ccc(-c2cnc(Nc3ccc(N4CCOCC4)cc3)c3ncnn23)s1 [Compound 13]
EC50 ([1]; Table 3): 101 to 500 nM | IC50 [2]: > 1000 nM | EC50 [3]: > 1000 nM

NC(=O)c1c(F)cc(-c2cnc(Nc3ccc(N4CCOCC4)cc3)c3ncnn23)cc1F [Compound 14]
EC50 ([1]; Table 3): > 1000 nM | IC50 [2]: > 1000 nM | EC50 [3]: > 1000 nM

NC(=O)c1cc(-c2cnc(Nc3ccc(N4CCOCC4)cc3)c3ncnn23)cs1 [Compound 15, 4-[8-(4-Morpholin-4-yl-phenylamino)-[1,2,4]triazolo[1,5-a]pyrazin-5-yl]-thiophene-2-carboxylic acid amide]
EC50 ([1]; Table 3): 101 to 500 nM | IC50 [2]: 101 to 500 nM | EC50 [3]: 501 to 1000 nM

Cc1[nH]ncc1-c1cnc(Nc2ccc(N3CCN(C)CC3)cc2)c2ncnn12 [Compound 16, 5-(5-Methyl-1H-pyrazol-4-yl)-N-(4-(4-methylpiperazin-1-yl)phenyl)-[1,2,4]triazolo[1,5-a]pyrazin-8-amine]
EC50 ([1]; Table 3): > 1000 nM | IC50 [2]: > 1000 nM | EC50 [3]: > 1000 nM

Fc1cc(Nc2ncc(-c3cn[nH]c3)n3ncnc23)ccc1N1CCOCC1 [Compound 17, (3-Fluoro-4-morpholinophenyl)-5-(1H-pyrazol-4-yl)-[1,2,4]triazolo[1,5-a]pyrazin-8-amine]
EC50 ([1]; Table 3): > 1000 nM | IC50 [2]: > 1000 nM | EC50 [3]: > 1000 nM

Clc1cc(Nc2ncc(-c3cn[nH]c3)n3ncnc23)ccc1N1CCOCC1 [Compound 18]
EC50 ([1]; Table 3): 501 to 1000 nM | IC50 [2]: > 1000 nM | EC50 [3]: > 1000 nM

NC(=O)c1cc(Nc2ncc(-c3cn[nH]c3)n3ncnc23)ccc1N1CCOCC1 [Compound 19, 5-(5-(1H-Pyrazol-4-yl)-[1,2,4]triazolo[1,5-a]pyrazin-8-ylamino)-2-morpholinobenzamide]
EC50 ([1]; Table 3): > 1000 nM | IC50 [2]: > 1000 nM | EC50 [3]: > 1000 nM

c1nc2c(Nc3ccc(OCCN4CCOCC4)cc3)ncc(-c3cn[nH]c3)n2n1 [Compound 20]
EC50 ([1]; Table 3): > 1000 nM | IC50 [2]: > 1000 nM | EC50 [3]: > 1000 nM

CC(C)N(CCNC(=O)c1ccc(Nc2ncc(-c3cn[nH]c3)n3ncnc23)cc1)C(C)C [Compound 162]
EC50 ([1]; Table 4): > 1000 nM | IC50 [2]: 501 to 1000 nM

CC(C)CNC(=O)c1ccc(Nc2ncc(-c3cn[nH]c3)n3ncnc23)cc1 [Compound 164]
EC50 ([1]; Table 4): > 1000 nM | IC50 [2]: > 1000 nM

O=C(c1ccc(Nc2ncc(-c3cn[nH]c3)n3ncnc23)cc1)N1CCC(N2CCCCC2)CC1 [Compound 165]
EC50 ([1]; Table 4): > 1000 nM | IC50 [2]: > 1000 nM

O=C(NCCO)c1ccc(Nc2ncc(-c3cn[nH]c3)n3ncnc23)cc1 [Compound 166]
EC50 ([1]; Table 4): > 1000 nM | IC50 [2]: 501 to 1000 nM

NC(=O)c1cc(-c2cnc(Nc3ccc(NC(=O)Cc4ccccc4)nc3)c3ncnn23)cs1 [Compound 167, 4-[8-(6-Phenylacetylamino-pyridin-3-ylamino)-[1,2,4]triazolo[1,5-a]pyrazin-5-yl]-thiophene-2-carboxylic acid amide]
EC50 ([1]; Table 4): > 1000 nM | IC50 [2]: 501 to 1000 nM

Nc1nccn1-c1ncc(-c2ccc3c(c2)CNC3=O)n2ncnc12 [Compound 168]
EC50 ([1]; Table 3): > 1000 nM | IC50 [2]: > 1000 nM

CC(C)N1CCN(c2ccc(Nc3ncc(-c4cc5c(cn4)C(=O)NC5)n4ncnc34)cc2)CC1 [Compound 173]
EC50 ([1]; Table 3): > 1000 nM | IC50 [2]: > 1000 nM

O=C1CN(c2ccc(Nc3ncc(-c4cn[nH]c4)n4ncnc34)cc2)CCN1 [Compound 177]
EC50 ([1]; Table 3): > 1000 nM | IC50 [2]: > 1000 nM

CC(C)(C)NC(=O)N1CCC(Nc2ncc(-c3ccc4c(c3)CNC4=O)n3ncnc23)CC1 [Compound 178]
EC50 ([1]; Table 3): > 1000 nM | IC50 [2]: 501 to 1000 nM

O=C1NCc2cc(-c3cnc(NC4CCC4)c4ncnn34)ccc21 [Compound 182]
EC50 ([1]; Table 3): > 1000 nM | IC50 [2]: 101 to 500 nM

CC(C)(C)N1CCN(c2ccc(Nc3ncc(-c4coc(C(N)=O)c4)n4ncnc34)cc2)CC1 [Compound 183]
EC50 ([1]; Table 3): > 1000 nM | IC50 [2]: 1 to 100 nM

O=C1NCc2cc(-c3cnc(NCC4CCCCC4)c4ncnn34)ccc21 [Compound 184]
EC50 ([1]; Table 3): > 1000 nM | IC50 [2]: 101 to 500 nM

O=C1NCc2cc(-c3cnc(NC4CCNCC4)c4ncnn34)ccc21 [Compound 185]
EC50 ([1]; Table 3): > 1000 nM | IC50 [2]: > 1000 nM

O=C(NCc1cc(-c2ccccc2)on1)c1ccc(Nc2ncc(-c3cn[nH]c3)n3ncnc23)cc1 [Compound 192]
EC50 ([1]; Table 4): 101 to 500 nM | IC50 [2]: > 1000 nM

O=C(Nc1ccc(N2CCOCC2)nc1)c1ccc(Nc2ncc(-c3ccc4c(c3)CNC4=O)n3ncnc23)cc1 [Compound 193]
EC50 ([1]; Table 4): > 1000 nM | IC50 [2]: > 1000 nM

O=C(Nc1ccc(N2CCOCC2)nc1)c1ccc(Nc2ncc(-c3cn[nH]c3)n3ncnc23)cc1 [Compound 194]
EC50 ([1]; Table 4): 501 to 1000 nM | IC50 [2]: > 1000 nM

O=C(N[C@@H]1CCN(Cc2ccccc2)C1)c1ccc(Nc2ncc(-c3ccc4c(c3)CNC4=O)n3ncnc23)cc1 [Compound 195]
EC50 ([1]; Table 4): > 1000 nM | IC50 [2]: 101 to 500 nM

O=C(N[C@H]1CCN(Cc2ccccc2)C1)c1ccc(Nc2ncc(-c3ccc4c(c3)CNC4=O)n3ncnc23)cc1 [Compound 196]
EC50 ([1]; Table 4): > 1000 nM | IC50 [2]: 101 to 500 nM

O=C(NCc1cc(-c2ccccc2)on1)c1ccc(Nc2ncc(-c3ccc4c(c3)CNC4=O)n3ncnc23)cc1 [Compound 197]
EC50 ([1]; Table 4): > 1000 nM | IC50 [2]: > 1000 nM

O=C(Nc1cn(Cc2ccccc2)cn1)c1ccc(Nc2ncc(-c3cn[nH]c3)n3ncnc23)cc1 [Compound 198]
EC50 ([1]; Table 4): > 1000 nM | IC50 [2]: > 1000 nM
